Assay: in vivo
Settings: BALB/c, mouse, iv
From the text: The complex disclosed in the present application is preferably retained in the blood until completion of X-ray CT imaging after administration and is preferably excreted by the kidneys by the time of the next X-ray CT imaging. […] As a matter of course, the half-life in blood may be shorter or longer than the above half-life in blood in the case of imaging a temporary structure instead of imaging structural change over time or using a typical X-ray CT imaging device. The half-life in blood can be adjusted by changing the type of protein or the size of the complex. The “half-life in blood” means the time it takes for the X-ray CT value of the complex to decrease by half from the maximum value after administration in vivo. However, the shortest time at which X-ray CT imaging can be started after administration of a contrast agent is about 5 minutes, and thus the measurement value at the time when X-ray CT imaging is started 5 minutes after administration of the contrast agent is defined as the “maximum value after administration in vivo” in the present specification.
Imaging was performed using a micro X-ray CT device (SkyScan1176, Bruker) under conditions of a tube voltage of 50 kV, a tube current of 500 μA, and 35 μm/voxel, 18 μm/voxel, or 9 μm/voxel. The contrast agents synthesized in Example 1 and Comparative Examples 1 and 2 were imaged in vitro. In vivo, 200 μL of each contrast agent was injected into an anesthetized mouse from the tail vein, and CT imaging was performed once or twice. Slice images were acquired using CTAn (Bruker), and volume rendered images were acquired using CTVOX. CT values were calculated by defining the value of Hounsfield Units (HU) as −1000 for air and 0 for water.
The image before the administration of the contrast agent was taken as 0 min (before injection).
FIGS. 16 and 17 show CT images of mouse hearts before and after intravenous administrations of the contrast agents. […] In addition, in FIGS. 16 and 17, the dotted line circles indicate the contour of the hearts, and the tips of the arrows (white and black) indicate the positions of the septa of the hearts.
FIG. 18 is a graph showing results of measuring changes in CT values of ventricles over time.

CT value of ventricles: 72 HU
half-life: < 1 h
CT value of ventricles (5 min): 291 HU
CT value of ventricles (60 min): 130 HU
CT value of ventricles (180 min): 75 HU
CT value of ventricles (360 min): 87 HU
CT value of ventricles (24 h): 72 HU
SMILES: C[C@H](O)C(=O)Nc1c(I)c(C(=O)NC(CO)CO)c(I)c(C(=O)NC(CO)CO)c1I [iopamidol, Iopamidol]

Source: US20240139347A1, “COMPLEX, VASCULAR CONTRAST AGENT, X-RAY CONTRAST AGENT, METHOD FOR PRODUCING COMPLEX, AND IMAGING METHOD FOR CAPTURING STRUCTURAL CHANGE IN VESSEL” (TOHOKU UNIVERSITY, priority 2021, published 2024)
